Assay results as given in patent US9421211B2, “N,N′-diarylurea compounds and N,N′-diarylthiourea compounds as inhibitors of translation initiation” (President and Fellows of Harvard College, priority 2009, dated 2016).

Legend:
[1] = tested on: eIF2.GTP.Met-tRNAi ternary complex; test: Ternary complex assay: dual luciferase F-luc/R-luc ratio in KLN-tTA/pBISA-DL(ATF-4) cells (HTS screen, 96-well hit confirmation, dose response); type: cell-based, mouse; settings: siRNA to PKR, PERK, GCN2; also CRL-2813 cells
Description: For assay development, a bi-directional plasmid was designed in which a common promoter/enhancer complex drives the transcription of firefly luciferase (F-luc) ORF fused to the 5′ untranslated region (UTR) of ATF-4, and of the renilla luciferase (R-luc) ORF fused to a 90-nucleotide 5′ UTR derived from the plasmid (FIG. 6A). Because the tetracycline-regulated transactivator ((tTA), required for driving transcription from this vector) is not normally expressed in the mammalian cells, stable KLN cancer cells were constructed that expressed tTA (KLN-tTA).
The KLN-tTA colonies that drove expression of reporter genes from pBISA-DL plasmid were selected by transient transfection and dual luciferase assay. One of these KLN-tTA cell lines was transfected with the pBISA-DL^(ATF-4) expression vector, stable colonies were selected by dual luciferase assay and expanded. To determine if reduced availability of the eIF2.GTP.Met-tRNAi ternary complex increased the translation of firefly luciferase and decreased translation of renilla luciferase, selected KLN-tTA/pBISA-DL^(ATF-4) colonies were treated with thapsigargin (TG) or tunicamycin (TU), two agents known to cause phosphorylation of eIF2α.
This assay was then adapted for high throughput screening in 96 and 384 well plates. This was done by evaluating the cell density, length of exposure to compounds, DMSO tolerance and optimum firefly and renilla substrate. We then challenged these cells with thapsigargin or DMSO. […] Cell-based assays usually have higher variation than homogeneous in vitro assays due to position effect in the plate, and other variables associated with handling of cells and the plates.
Screening was conducted in 384 well white opaque plates (Nalge Nunc), 100 μl volume RPMI+10% fetal bovine serum. Cells were plated at the sub-confluent density of 10,000 cells/well, and allowed to attach for a period of 16-18 hours at 37° C., 5% CO2. Compounds were added as 1 μl of a 1 mM DMSO stock solution for a final screening concentration of […] using low-volume tips for transfer (Molecular Bioproducts). Cells were then incubated in the presence of compound for an additional sixteen hours, again at 37° C., 5% CO2. Following incubation 70 μl of the culture medium was removed from each well to allow for reagent addition and plates were allowed to equilibrate to room temperature for thirty minutes. Firefly luciferase reporter activity was then read by the addition of thirty microliters of Dual Glo Luciferase reagent (Promega), followed by one hour incubation at room temperature to allow for adequate signal buildup. Luminescence counting was conducted on a Microbeta Trilux using a 1 second read time. Renilla luciferase reporter activity was measured following addition of 30 μl Stop and Glo Luciferase reagent (Promega) and incubation identical to the one carried out for the firefly luciferase one.
Compound scores were interpreted as firefly luciferase activity divided by renilla luciferase activity, normalized to the plate's DMSO control. […] All data analysis was conducted using the BioAssay HTS software package (CambridgeSoft).
102,709 compounds in the NCI Open Chemical Repository were then screened using this HTS assay. […] Initial hits were confirmed by repeating the same dual luciferase assay in 96 well plates. Briefly, 20,000 cells/well were plated in triplicate for each concentration (10, 5 and 2.5 μM) of the compounds.

CHOP mRNA = test: Endogenous CHOP mRNA by real-time PCR in KLN-tTA/pBISA-DL(ATF-4) cells; type: cell-based, mouse; settings: siRNA to HRI, also CRL-2813 cells
Description: (§1) For example, reducing amount of the ternary complex increases translation of ATF-4, which results in elevated expression of CHOP mRNA and protein. Therefore, expression of endogenous CHOP mRNA and CHOP protein in KLN-tTA/pBISA-DL^(ATF-4) cells were utilized as secondary assays to validate N,N′-diarylurea compounds as modifiers of the eIF2.GTP.Met-tRNAi ternary complex. […] To rule out the possibility that the activity of N,N′-diarylurea compounds was confined to a single cell type, the effects of these compounds on the ternary complex assay and the expression of CHOP mRNA was assayed in CRL-2351, PC-3, CRL-2813 human breast, prostate, and melanoma cancer cell lines respectively. For the reporter gene assay, the three human cell lines were co-transfected with tTA expression vector and the pBISA-DL^(ATF-4) dual luciferase expression vector shown in FIG. 6. […] The expression of CHOP mRNA was assayed by real time PCR in the same cell lines treated with 5 or 20 μM of each compound.
Real time PCR: For real time PCR, total RNA was extracted with TaqMan Gene Expression Cells-to-Ct™ Kit (Applied Biosystems, Branchburg, N.J.) according to manufacturer's protocol. Contaminating DNA was removed by DNase I treatment. […] To calibrate the results, all the transcripts quantities were normalized to 18S rRNA (was 18S ribosomal RNA-like mRNA in mouse). […]

eIF2α = test: Phosphorylation of eIF2α in cells by Western blot (KLN-tTA/pBISA-DL(ATF-4), PC-3, CRL-2813); type: cell-based, mouse; human; settings: CRL-2813, HRI siRNA
Description: The amount of the eIF2.GTP.Met-tRNAi complex can be reduced by phosphorylation of eIF2α, reduced expression of Met-tRNAi, or eIF2α phosphorylation independent reduction in the activity of eIF2B, the eIF2 guanine nucleotide exchange factor. To determine which of these was the case, the effect of active N,N′-diarylureas on the phosphorylation of eIF2α was studied. […] To determine if the phosphorylation of eIF2α was responsible for reduced amount of the ternary complex in the cells treated with N,N′-diarylurea compounds, previously generated PC-3 human prostate cancer cell lines in which expression of endogenous eIF2α was replaced with recombinant wild type (WT) or non-phosphorylatable eIF2α-S51A were utilized.
Western blotting: Cell extracts were separated by SDS-PAGE and probed with anti-phosphoserine-51-eIF2 cc (PS51-eIF2α), anti-total eIF2α-specific antibodies […] (Biosource International, Hopkinton, Mass.), anti-CHOP, or anti β-actin (Santa Cruz Biotechnology, CA) as described.

HRI [2] = biological target: T1, HRI (Oryctolagus cuniculus, UniProt P33279); test: Phosphorylation of eIF2α in heme-supplemented rabbit reticulocyte lysate; type: biochemical; settings: 30 minutes at 37° C.
T1 construct: from tissue; host or cells: rabbit reticulocyte lysate, heme supplemented
T1 sequence (P33279 whole entry): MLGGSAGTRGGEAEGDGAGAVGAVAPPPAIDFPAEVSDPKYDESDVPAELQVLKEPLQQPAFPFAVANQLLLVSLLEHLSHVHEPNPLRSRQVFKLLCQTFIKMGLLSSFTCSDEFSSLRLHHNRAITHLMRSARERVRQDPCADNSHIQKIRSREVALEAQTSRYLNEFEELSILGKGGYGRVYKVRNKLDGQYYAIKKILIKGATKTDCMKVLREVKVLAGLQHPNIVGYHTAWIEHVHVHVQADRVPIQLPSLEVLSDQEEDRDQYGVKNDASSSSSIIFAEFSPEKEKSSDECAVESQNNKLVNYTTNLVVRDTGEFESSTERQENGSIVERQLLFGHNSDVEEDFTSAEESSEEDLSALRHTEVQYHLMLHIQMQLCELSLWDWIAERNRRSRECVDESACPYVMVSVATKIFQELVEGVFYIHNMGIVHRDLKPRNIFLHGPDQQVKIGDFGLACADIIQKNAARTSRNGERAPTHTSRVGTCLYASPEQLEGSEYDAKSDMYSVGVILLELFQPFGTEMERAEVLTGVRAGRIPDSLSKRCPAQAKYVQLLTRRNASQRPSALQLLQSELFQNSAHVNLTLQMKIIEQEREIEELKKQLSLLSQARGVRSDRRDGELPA
Protocol: (§2) FIGS. 14A and 14B depict that N,N′-diarylurea compounds activate HRI in cell free lysates. A and B) Heme supplemented rabbit reticulocyte (a) or in-house prepared human melanoma cancer cell lysates (b) were incubated with the indicated concentration of compound 1781 for 30 minutes at 37° C. and phosphorylation of eIF2α was determined by Western blot analysis.
(§3) Compound #1781 was added to lysates of CRL-2813 cells or heme-supplemented rabbit reticulocytes and phosphorylation of eIF2α by Western blot was determined.

HRI [3] = biological target: T2, HRI (Homo sapiens, UniProt Q9BQI3); test: Phosphorylation of eIF2α in CRL-2813 human melanoma cell lysate; type: biochemical; settings: CRL-2813 cell lysate, 30 minutes at 37° C.
T2 construct: endogenous in cells; host or cells: CRL-2813 human melanoma cells (lysate prepared in house)
T2 sequence (Q9BQI3 whole entry): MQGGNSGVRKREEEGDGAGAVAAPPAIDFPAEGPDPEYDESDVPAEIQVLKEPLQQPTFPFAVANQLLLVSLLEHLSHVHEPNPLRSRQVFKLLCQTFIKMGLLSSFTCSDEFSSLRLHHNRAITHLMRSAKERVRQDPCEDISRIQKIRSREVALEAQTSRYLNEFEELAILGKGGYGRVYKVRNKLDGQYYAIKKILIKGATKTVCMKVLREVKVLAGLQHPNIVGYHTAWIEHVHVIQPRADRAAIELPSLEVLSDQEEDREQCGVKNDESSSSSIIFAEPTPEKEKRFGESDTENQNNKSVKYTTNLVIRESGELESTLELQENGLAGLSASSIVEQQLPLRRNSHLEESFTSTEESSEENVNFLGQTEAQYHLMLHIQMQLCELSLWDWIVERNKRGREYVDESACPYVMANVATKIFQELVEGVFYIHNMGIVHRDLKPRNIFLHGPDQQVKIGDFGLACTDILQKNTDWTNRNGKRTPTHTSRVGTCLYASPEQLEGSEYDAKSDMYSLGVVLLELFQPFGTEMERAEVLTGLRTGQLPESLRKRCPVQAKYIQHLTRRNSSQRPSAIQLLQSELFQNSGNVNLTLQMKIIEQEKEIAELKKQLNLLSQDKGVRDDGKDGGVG
Protocol: as §2, §3

[4] = In vivo toxicity, seven day administration to mice; settings: seven consecutive days, up to 200 mg/kg
Protocol: Five female nude mice each were treated with 200 mg/kg, 100 mg/kg #1781 in 15 μl DMSO or 15 μl DMSO daily for seven days. Mice were observed daily for signs of toxicity and weighed every other day for total of 15 days and then necropsy was performed. The average body of each group is plotted against the time.
To study toxicity effects, mice were treated with various doses of compound #1781 or vehicle.

[5] = tested on: eIF2.GTP.Met-tRNAi ternary complex; test: ATF-4 assay (firefly/renilla luciferase ratio) in CRL-2351 cell line; type: cell-based, human
Description: as §1
Stable and transient transfection: Cells were seeded at the density of 10^5 in 60-mm (stable transfection) or 10^4 cells per well of 96-well plate (transient transfection) plates and transfected one day later using the Qiagen Transfectamine transfection kit. For selection of stable cell lines, transfected cells were transferred to 100-mm plates and selected with appropriate antibiotics.
Dual luciferase assay: Cells or minced tumors expressing firefly and renilla luciferases were lysed and the extracts assayed with a glow type dual luciferase assay kit, per manufacturer's instruction (Promega Inc., Madison, Wis.).

[6] = tested on: KLN mouse squamous cell carcinoma cells; test: Cell proliferation SRB assay, KLN; type: cell-based; settings: KLN cells, read-out: IC50 (μM) by SRB assay, KLN
Protocol: (§4) Reduced availability of the ternary complex causes inhibition of translation initiation and thereby of cell proliferation. […] The effects of N,N′-diarylureas on the proliferation KLN mouse squamous cell carcinoma, CRL-2351 human breast, CRL-2813 human melanoma, A549 human lung and PC-3 human prostate cancer cell lines were tested.
(§5) Cell Growth Assay: Cell Growth was Measured by the SRB Assay.

[7] = tested on: CRL-2813 human melanoma cells; test: Cell proliferation SRB assay, CRL-2813; type: cell-based; settings: CRL2813, 2813 cells, read-out: IC50 (μM) by SRB assay, 2813
Protocol: as §4, with “tested. […]” for “tested.”
as §5

[8] = tested on: CRL-2351 human breast cancer cells; test: Cell proliferation SRB assay, CRL-2351; type: cell-based; settings: Homo sapiens; 2351 cells; read-out: IC50 (μM) by SRB assay, 2351
Protocol: as §4, §5

[9] = Solubility observed at purification; type: physicochemical; settings: solvents tried for purification
Protocol: Because it could not be purified, this compound was removed from the structure-activity relationship (SAR) study.
As another non-limiting example, 3,4-dichlorophenylisocyanate (250 mg, 1.330 mmol) and 2-amino-4-hydroxy-6-methylpyrimidine (166 mg, 1.330 mmol) were used following the general procedure E to synthesize 28.

| Compound | Induction of F-luc/R-luc ratio by the compound after knocking down PKR, PERK or GCN2 [1] | Induction of CHOP mRNA by the compound after knocking down HRI (CHOP mRNA) | Induction of eIF2α phosphorylation by the compound after silencing of HRI (eIF2α) | Phosphorylation of eIF2α in cell lysates (HRI [2]) | Phosphorylation of eIF2α in cell lysates (HRI [3]) | Effect on weight gain or food consumption of mice [4] | maximal fold induction ([5]; Homo sapiens, read-out: ATF-4 Amax: maximal activity, ratio of firefly over renilla luciferase expression) | EC (activity threshold of 5) ([5]; Homo sapiens, read-out: ATF-4 C[5] (μM): concentration corresponding to an activity threshold of 5) [µM] | Cmax ([5]; read-out: ATF-4 Cmax (μM): concentration corresponding to the maximal activity) [µM] | IC50 [6] [µM] | IC50 [7] [µM] | IC50 [8] [µM] | Solubility [9] |
| --- | --- | --- | --- | --- | --- | --- | --- | --- | --- | --- | --- | --- | --- |
| O=C(Nc1ccc(Cl)c(Cl)c1)Nc1ccc2nnsc2c1 [#1781] | no effect | abrogated | reduced | caused phosphorylation of eIF2α | caused phosphorylation of eIF2α | no adverse effect | – | – | – | – | – | – | – |
| O=C(Nc1cc(C(F)(F)F)cc(C(F)(F)F)c1)Nc1ncccc1O [Compound 28] | – | – | – | – | – | – | 5 | 40 | 40 | 15 | 0.7 | 0.7 | not soluble in any solvent |
